Assay results as given in patent US20160311788A1, “Antifouling Compounds And Use Thereof” (National University of Singapore, priority 2008, published 2016).

How the values were obtained:
[1] = system: marine bacteria strain S16; assay: disc inhibition assay, strain S16; type: cell-based, Pseudoalteromonas piscicida; conditions: Pseudoalteromonas piscicida, S16, 24 h
Summary of the method: (§1)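 Zone-of-inhibition diameters (caliper, n=2 averaged) were recorded after overnight dark incubation at 35° C. Test discs of 6 mm bore 50 μg compound delivered in DMSO, placed on lawns of the marine strain grown in marine broth and spread on Marine Agar; solvent discs served as controls.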

[2] = system: Escherichia coli (Strain DH5a); assay: disc inhibition assay, REF 2; type: cell-based
Experimental: (§2) 13 strains of marine bacteria were isolated from fouling communities located in the coastal waters around Singapore. These were characterized in earlier studies and reported in Teo et al. (U.S. patent application Ser. No. 11/265,833) and Choong et al (in prep). In addition, four reference bacterial strains were added tested: Escherichia coli (Strain K12, ATCC 15222), E. coli (strain DH5a), Pseudomonas aeruginosa (strain LMG 12228; ATCC 15692) and P. putida (strain KT2440; ATCC 47054). All the bacteria were also tested against five antibiotics: ampicillin (AMP), tetracycline (TETR), erythromycin (ERY), chloramphenicol (CHL) and streptomycin (STREP).
(§3) Disks comprising the compounds to be tested were prepared as follows. The antibacterial assay, the pure compounds were made up to a concentration of 2 mgml^−1 in DMSO. 25 μl of the stock was pipetted onto each 6 mm sterile disc (Macherey-Nagel #484000) to obtain 50 μg of compound per disc. Equivalent volume of DMSO was used inoculated for the control.
(§4) For all disk inhibition assays, bacterial cultures were grown in marine broth (Pronadisa #1217.00). Sterile swabs dipped into the cultures were used to inoculate Marine Agar plates with a bacterial lawn by smearing the culture over the surface. After inoculating the plates, discs with antibiotics, pharmaceuticals or control blanks were placed on each plate. Each concentration of antibiotic or pharmaceutical was tested with two replicates. After the disks were placed on the agar surface, plates were incubated overnight in the dark at 35° C. After incubation, plates were examined for zones of inhibition or clearing around control and treated disks. The diameter of any zone of clearing or inhibition was measured using Vernier calipers. There were two replicates per treatment, and the average was taken. There was no zone of inhibition around the control blanks in all the assays.

[3] = system: Escherichia coli (Strain K12; ATCC 15222); assay: disc inhibition assay, REF 1; type: cell-based
Experimental: as §2, §3, §4

[4] = system: marine bacteria strain S29; assay: disc inhibition assay, strain S29; type: cell-based, Bacillus hwajinpoensis; conditions: Guptibacillus hwajinpoensis, S29, 24 h
Summary of the method: as §1

[5] = system: marine bacteria strain S28; assay: disc inhibition assay, strain S28; type: cell-based, Arthrobacter protophormial; conditions: Arthrobacter, S28, 24 h
Summary of the method: as §1

[6] = system: marine bacteria strain S1; assay: disc inhibition assay, strain S1; type: cell-based, Rhodovulum iodosum; conditions: Rhodovulum iodosum, S1
Summary of the method: as §1

[7] = system: marine bacteria strain S10; assay: disc inhibition assay, strain S10; type: cell-based, Halobacillus trueperi; conditions: Halobacillus trueperi, S10, 24 h
Summary of the method: as §1

[8] = system: Pseudomonas putida (Strain KT2440; BCRC 10459); assay: disc inhibition assay, REF 4; type: cell-based
Experimental: as §2, §3, §4

[9] = system: marine bacteria strain S27; assay: disc inhibition assay, strain S27; type: cell-based, Tenacibaculum lutimaris; conditions: Tenacibaculum lutimaris, S27, 24 h
Summary of the method: as §1

[10] = system: marine bacteria strain S14; assay: disc inhibition assay, strain S14; type: cell-based, Vibrio probioticus; conditions: Vibrio, S14, 24 h
[11] = system: marine bacteria strain S30; assay: disc inhibition assay, strain S30; type: cell-based, Bacillus borophilicus; conditions: Bacillus, S30, 24 h
Summary of the method: as §1

[12] = system: marine bacteria strain S4; assay: disc inhibition assay, strain S4; type: cell-based, Bacillus algicola; conditions: Guptibacillus algicola, S4, 24 h
Summary of the method: as §1

[13] = system: Pseudomonas aeruginosa (strain LMG 12228; ATCC 15692); assay: disc inhibition assay, REF 3; type: cell-based
Experimental: as §2, §3, §4

[14] = system: marine bacteria strain S3; assay: disc inhibition assay, strain S3; type: cell-based, Erythrobacter aquimaris
Summary of the method: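 Antibacterial susceptibility was measured by agar disc diffusion. Compounds dissolved in DMSO were applied to 6 mm sterile discs and laid on Marine Agar lawns of a Singapore coastal marine bacterium cultured in marine broth. After overnight dark incubation at 35° C, clearing zone diameters were measured with Vernier calipers, and the two replicates were averaged.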

[15] = system: marine bacteria strain S9; assay: disc inhibition assay, strain S9; type: cell-based, Bacillus algicola; conditions: Guptibacillus algicola, S9, 24 h
Summary of the method: as §1

[16] = system: marine bacteria strain S17; assay: disc inhibition assay, strain S17; type: cell-based, Gordonia terrae
Summary of the method: as §1

[17] = system: marine bacteria strain S18; assay: disc inhibition assay, strain S18; type: cell-based, Microbacterium esteraromaticum; conditions: Microbacterium esteraromaticum, S18, 24 h

CC1(C)S[C@@H]2[C@H](NC(=O)[C@H](N)c3ccccc3)C(=O)N2[C@H]1C(=O)O [AMP, Ampicillin, reference compound]
zone of inhibition at 2 µg/disc ([1]; strain 16, 2 ug): 2 to 5 mm | zone of inhibition at 10 µg/disc ([1]; strain 16, 10 ug): 2 to 5 mm | zone of inhibition ([2]; REF 2, 2 ug): − | zone of inhibition ([2]; REF 2, 10 ug): + (2-5 mm zone of inhibition around each disk was observed.) | zone of inhibition ([3]; REF 1, 2 ug): − | zone of inhibition ([3]; REF 1, 10 ug): + (2-5 mm zone of inhibition around each disk was observed.) | zone of inhibition at 2 µg/disc ([4]; strain 29, 2 ug): > 10 mm | zone of inhibition at 10 µg/disc ([4]; strain 29, 10 ug): > 10 mm | zone of inhibition at 2 µg/disc ([5]; strain 28, 2 ug): 2 to 5 mm | zone of inhibition at 10 µg/disc ([5]; strain 28, 10 ug): 5 to 10 mm | zone of inhibition at 2 µg/disc ([6]; strain 1, 2 ug): 5 to 10 mm | zone of inhibition at 10 µg/disc ([6]; strain 1, 10 ug): 5 to 10 mm | zone of inhibition at 2 µg/disc ([7]; strain 10, 2 ug): > 10 mm | zone of inhibition at 10 µg/disc ([7]; strain 10, 10 ug): > 10 mm | zone of inhibition ([8]; REF 4, 2 ug): − | zone of inhibition ([8]; REF 4, 10 ug): + (2-5 mm zone of inhibition around each disk was observed.) | zone of inhibition at 2 µg/disc ([9]; strain 27, 2 ug): 5 to 10 mm | zone of inhibition at 10 µg/disc ([9]; strain 27, 10 ug): > 10 mm | zone of inhibition at 2 µg/disc [10]: 2 to 5 mm | zone of inhibition at 10 µg/disc [10]: 2 to 5 mm | zone of inhibition at 2 µg/disc ([11]; strain 30, 2 ug): > 10 mm | zone of inhibition at 10 µg/disc ([11]; strain 30, 10 ug): > 10 mm | zone of inhibition at 2 µg/disc ([12]; strain 4, 2 ug): > 10 mm | zone of inhibition at 10 µg/disc ([12]; strain 4, 10 ug): > 10 mm | zone of inhibition ([13]; REF 3, 2 ug): − | zone of inhibition ([13]; REF 3, 10 ug): − | zone of inhibition ([14]; strain 3, 2 ug): − | zone of inhibition ([14]; strain 3, 10 ug): − | zone of inhibition at 2 µg/disc ([15]; strain 9, 2 ug): 2 to 5 mm | zone of inhibition at 10 µg/disc ([15]; strain 9, 10 ug): > 10 mm | zone of inhibition ([16]; strain 17, 2 ug): − | zone of inhibition ([16]; strain 17, 10 ug): − | zone of inhibition at 2 µg/disc ([17]; strain 18, 2 ug): 2 to 5 mm | zone of inhibition at 10 µg/disc ([17]; strain 18, 10 ug): 5 to 10 mm

O=C(N[C@H](CO)[C@H](O)c1ccc([N+](=O)[O-])cc1)C(Cl)Cl [CHL, Chloramphenicol, reference compound]
zone of inhibition at 30 µg/disc ([1]; strain 16, 30 ug): 5 to 10 mm | zone of inhibition ([2]; REF 2, 30 ug): ++ (5-10 mm zone was observed.) | zone of inhibition ([3]; REF 1, 30 ug): ++ (5-10 mm zone was observed.) | zone of inhibition at 30 µg/disc ([4]; strain 29, 30 ug): > 10 mm | zone of inhibition at 30 µg/disc ([5]; strain 28, 30 ug): > 10 mm | zone of inhibition at 30 µg/disc ([6]; strain 1, 30 ug): 5 to 10 mm | zone of inhibition at 30 µg/disc ([7]; strain 10, 30 ug): > 10 mm | zone of inhibition ([8]; REF 4, 30 ug): ++ (5-10 mm zone was observed.) | zone of inhibition at 30 µg/disc ([9]; strain 27, 30 ug): > 10 mm | zone of inhibition at 30 µg/disc [10]: 5 to 10 mm | zone of inhibition at 30 µg/disc ([11]; strain 30, 30 ug): 5 to 10 mm | zone of inhibition at 30 µg/disc ([12]; strain 4, 30 ug): > 10 mm | zone of inhibition ([13]; REF 3, 30 ug): ++ (5-10 mm zone was observed.) | zone of inhibition at 30 µg/disc ([14]; Qipengyuania aquimaris, S3, 24 h, strain 3, 30 ug): > 10 mm | zone of inhibition at 30 µg/disc ([15]; strain 9, 30 ug): > 10 mm | zone of inhibition at 30 µg/disc ([16]; Gordonia terrae, S17, 24 h, strain 17, 30 ug): > 10 mm | zone of inhibition at 30 µg/disc ([17]; strain 18, 30 ug): 5 to 10 mm
